# Entries after “also recorded” stand apart in the source; their conditions may differ.
# Key:
# HFD/STZ mice = experiment: 8-week treatment of HFD/STZ mice; format: in vivo
# Procedure: For generation of nongenetic mice model of type 2 diabetes, ICR mice were fed with high fat diet (HFD, with 60% fat, Research Diets) for three weeks, then fasted for 5 h before receiving a single dose of streptozotocin (STZ, Sigma) intraperitoneally (ip) at 80 mg/kg to induce partial insulin deficiency. […] Diabetes was assessed using conventional criteria. Mice with similar degree of hyperglycemia and body weight were randomized into various groups in order to get a similar average PBG in each group.
# Diabetic mice in group of four were treated by gavage with vehicle (0.5% carboxymethylcellulose, CMC, Sigma), WB403 50, 100 mg/kg or sitagliptin at 100 mg/kg daily for 4 weeks in db/db mice (n = 5 with chow diet), and 8 weeks in HFD/STZ mice (n = 8 with HFD, additional normal mice group with chow diet). During the entire dosing period, body weight, food intake and water intake were monitored three times per week, while FBG and PBG were measured weekly. Overnight fasted mice received an oral glucose challenge at 2 g/kg and postprandial 2 h blood glucose was measured. Animals were treated and assessed in the order of the vehicle, WB403 50, 100 mg/kg and sitagliptin 100 mg/kg group.
# Fig 4 WB403 improved hyperglycemia of HFD/STZ mice. Mice were treated with different concentration of WB403, vehicle or sitagliptin. FBG (A) and PBG (B) were measured every week during the 8-week treatment period. (C, D) HbA1c levels in serum. Values are mean ± SEM (n = 8). *p<0.05, **p<0.01, ***p<0.001 vs. vehicle group.
# db/db mice = experiment: pancreas histology (H&E, IHC) of treated db/db mice; format: in vivo
# Procedure: Analysis of islet cell mass was performed using conventional methods. In brief, mice were sacrificed by cervical dislocation. The body part of the pancreas was rapidly excised, fixed in 10% neutral buffered formalin solution for 24 h and embedded in paraffin, then sectioned at 5 μm ready for hematoxylin and eosin (H&E) staining and immunohistochemistry staining (IHC). The latter was carried out using rabbit anti-insulin polyclonal antibody (Cat. no. 4590, 1:600) and rabbit anti-glucagon monoclonal antibody (Cat. no. 8233s, 1:200) from Cell Signaling Technology.
# Fig 5 WB403 preserved the mass of pancreatic β-cells and normal distribution of α and β-cells. (A) H&E staining of pancreas from db/db mice, and statistical result. Islets were sized by the Image J analysis software on alternated pancreatic sections spaced each by 100 μm. (B) Immunohistochemical analysis of pancreatic sections by anti-insulin antibody or anti-glucagon antibody. (C) H&E staining of pancreas from HFD/STZ mice, and statistical result. Results are representative islets from each group. 1–5 in the column graph on the right represents normal mice, diabetic mice treated with vehicle, WB403 50 mg/kg, WB403 100 mg/kg, sitagliptin 100 mg/kg respectively (n = 5). *p<0.05, **p<0.01, ***p<0.001 vs. diabetes-vehicle group.
# hGPR119 = molecular target: T1, hGPR119 (Homo sapiens, UniProt Q8TDV5); experiment: GPR119-dependent cAMP accumulation in transfected 293T cells; format: cell-based; settings: 10, 20 μmol/l
# T1 construct: host or cells: 293T cells, transient transfection with pGPR119
# T1 sequence (Q8TDV5 1-335): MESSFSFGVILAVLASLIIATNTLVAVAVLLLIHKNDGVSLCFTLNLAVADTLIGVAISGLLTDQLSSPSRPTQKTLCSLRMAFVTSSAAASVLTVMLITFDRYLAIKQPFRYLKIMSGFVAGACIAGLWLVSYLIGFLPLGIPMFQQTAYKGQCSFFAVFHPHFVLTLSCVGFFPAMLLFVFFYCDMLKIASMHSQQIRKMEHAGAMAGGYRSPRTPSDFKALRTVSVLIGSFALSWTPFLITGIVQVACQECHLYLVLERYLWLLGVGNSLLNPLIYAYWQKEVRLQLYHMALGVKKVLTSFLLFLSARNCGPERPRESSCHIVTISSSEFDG
# Procedure: For human TGR5 luciferase (luc) assay, 293T cells were co-transfected with pCRE-luc, pTGR5 (kind gift from Prof. Johan Auwerx, Ecole Polytechnique Fédérale de Lausanne, Lausanne, Switzerland) and pRenilla (Promega, USA). WB403 was added 5 h later. Cells were harvested after 16 h and subjected to luciferase analysis on Lumistar Optima chemiluminescent detector (BMG labtech, Germany). For cAMP testing, 293T cells transiently transfected with pTGR5 or pGPR119 (GeneCopoeia, USA) were washed by FBS-free DMEM, and stimulated with WB403 in FBS-free DMEM containing 3-isobutyl-1-methyl-xanthine (IBMX, Sigma). Cell lysates were collected 30 min later and used for cAMP ELISA assay. FLIPR Calcium 5 assay kit (Molecular Devices, USA) was used for calcium mobilization assay. 293-GPR40 stable cells (kindly provided by Prof. Naiming Zhou of Zhejiang University, Hanzhou, China) or 293 cells transient transfected with GPR120 were seeded at 50,000 cells per well in black-walled clear-bottomed 96-well plates (Costar). […] Increase of the intracellular Ca^2+ concentration was monitored by Flexstation 3 system (Molecular Devices, USA).
# The GLP-1 (active) ELISA kit was purchased from Millipore, and insulin ELISA kit was from Mercodia. For quantitative determination of cAMP, a competitive enzyme immunoassay kit from R&D system was used. […]
# [1] = HFD/STZ mice, 50, 100 mg/kg daily, from first week through 8-week treatment
smiles,measurement,setting,value
"CCc1cc(-c2nc(C)c(COCc3ccc(Br)cc3)s2)ccn1 [WB403, 4-(5-((4-bromobenzyloxy)-methyl)-4-methylthiazol-2-yl)-2-ethylpyridine]",serum HbA1c levels vs vehicle,"HFD/STZ mice; HFD/STZ mice, 8-week treatment",decreased significantly
same,FBG vs vehicle,HFD/STZ mice; [1],significantly decreased
same,PBG vs vehicle,HFD/STZ mice; [1],significantly decreased
same,islet area vs vehicle,"db/db mice; H&E, after 4-week treatment","bigger islet area as compared to the vehicle mice, though no significant difference was found"
same,α-cell and β-cell distribution in islets,db/db mice; IHC anti-insulin / anti-glucagon,significantly reduced α-cell in the islet core area and restored the normal cell distribution pattern
same,hGPR119 dependent cAMP accumulation,hGPR119,did not show significant stimulation activity; also recorded: no significant stimulation effect

# Reference: article PMC4514850, “A Novel TGR5 Activator WB403 Promotes GLP-1 Secretion and Preserves Pancreatic β-Cells in Type 2 Diabetic Mice” (PLoS ONE, 2015)
